Reference: patent publication US20210002231A1 (Centre National de la Recherche Scientifique, priority 2018, published 2021)
Starred links: 1 amine or outer side, 2 acyl side, 3 side chain; linkers in the order of their positions; H or OH if unused. Non-standard residues stand in square brackets, D forms with d. Residues, ends and D or L forms follow the SMILES beside them. *: point of attachment. Nva(5-(4-Bn-piperidin-1-yl)) = N[C@@H](CCCN1CCC(Cc2ccccc2)CC1)C(=O)O; X5 = O=C1[C@@H](N[*:1])Cc2ccccc2CN1CCCC(=O)[*:2]; X1 = O=C1[C@@H](N[*:1])Cc2ccccc2CN1CCC(=O)[*:2]; Dmt = Cc1cc(O)cc(C)c1C[C@H](N)C(=O)O; NMeβAla = CN(CCC(=O)[*:2])[*:1]; Nicotinoyl = O=C(c1cccnc1)*; dNMeA = CN[C@H](C)C(=O)O

Assays:
NPFF2R = NPFF2R (Homo sapiens, UniProt Q9Y5X5); assay: Radioligand competition binding with [125I]-1-DMe-NPFF; set-up: expressed in transfected cells; HEK293-Glo20F cells (cAMP)
NPFF2R, sequence (Q9Y5X5 whole entry): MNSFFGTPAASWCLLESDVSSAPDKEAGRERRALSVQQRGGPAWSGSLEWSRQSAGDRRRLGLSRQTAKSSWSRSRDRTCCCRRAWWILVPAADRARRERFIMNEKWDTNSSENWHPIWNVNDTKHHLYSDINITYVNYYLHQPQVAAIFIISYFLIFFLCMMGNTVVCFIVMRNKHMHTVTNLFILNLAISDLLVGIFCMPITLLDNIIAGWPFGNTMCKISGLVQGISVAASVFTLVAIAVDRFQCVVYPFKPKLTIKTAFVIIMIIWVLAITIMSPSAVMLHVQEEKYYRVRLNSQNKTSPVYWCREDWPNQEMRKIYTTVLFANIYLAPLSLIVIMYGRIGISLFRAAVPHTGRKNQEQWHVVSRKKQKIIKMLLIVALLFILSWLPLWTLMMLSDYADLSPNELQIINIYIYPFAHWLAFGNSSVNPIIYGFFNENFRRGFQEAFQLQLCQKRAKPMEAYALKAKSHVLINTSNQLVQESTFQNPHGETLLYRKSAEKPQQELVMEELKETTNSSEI

human NPFF1R = human NPFF1R (Homo sapiens, UniProt Q9GZQ6); assay: as above; set-up: expressed in transfected cells; HEK293-Glo20F cells (cAMP)
human NPFF1R, sequence (Q9GZQ6 whole entry): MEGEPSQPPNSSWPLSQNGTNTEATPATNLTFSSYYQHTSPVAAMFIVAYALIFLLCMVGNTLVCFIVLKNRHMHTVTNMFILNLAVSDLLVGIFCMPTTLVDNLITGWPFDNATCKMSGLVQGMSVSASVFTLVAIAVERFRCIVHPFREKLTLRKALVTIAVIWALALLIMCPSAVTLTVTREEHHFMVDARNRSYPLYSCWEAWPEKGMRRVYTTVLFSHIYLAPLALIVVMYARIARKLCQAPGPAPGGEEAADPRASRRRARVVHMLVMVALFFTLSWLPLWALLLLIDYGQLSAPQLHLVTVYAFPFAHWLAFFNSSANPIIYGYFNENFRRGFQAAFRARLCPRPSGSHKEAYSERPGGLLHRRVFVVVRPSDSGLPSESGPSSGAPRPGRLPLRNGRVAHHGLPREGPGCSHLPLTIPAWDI

human MOPr [1] = target: T1, human MOPr (Homo sapiens, UniProt P35372); assay: BRET1 β-arrestin-2 recruitment assay; type: cell-based; set-up: expressed in transfected cells; host or cells: HEK293 cells stably expressing eYFP-β-arrestin-2, transiently transfected with the Rluc8-MOP plasmid; conditions: for Emax: read-out: MOPr (β-arrestin-2) Emax; for β-arrestin-2 recruitment: in words;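 as to Emax: Emax relative to maximal DAMGO-induced BRET as 100%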;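 as to MOPr (β-arrestin-2) Emax: Emax relative to maximal DAMGO-induced BRET as 100%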
T1 sequence (P35372 whole entry): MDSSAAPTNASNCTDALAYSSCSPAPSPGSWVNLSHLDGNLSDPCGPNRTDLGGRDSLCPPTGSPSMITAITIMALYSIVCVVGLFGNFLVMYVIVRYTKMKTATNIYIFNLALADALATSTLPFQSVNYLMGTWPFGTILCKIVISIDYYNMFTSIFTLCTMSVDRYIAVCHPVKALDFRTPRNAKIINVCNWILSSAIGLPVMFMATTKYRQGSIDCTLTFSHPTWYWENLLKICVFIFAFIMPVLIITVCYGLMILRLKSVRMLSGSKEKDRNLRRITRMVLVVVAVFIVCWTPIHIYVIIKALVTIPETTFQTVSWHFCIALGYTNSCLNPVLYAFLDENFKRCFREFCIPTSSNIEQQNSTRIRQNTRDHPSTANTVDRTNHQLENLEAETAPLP
Description: Peak response amplitudes were normalized to basal and maximal (cells permeabilized with 20 μM digitonin) fluorescence levels. 1.8. β-Arrestin-2 recruitment assay The β-arrestin-2 recruitment assay was performed as described [34; 45] with minor modifications. Briefly, two days prior the experiment, HEK293 cells stably expressing eYFP-tagged β-arrestin-2 were transfected with the plasmid encoding Rluc8-MOP receptor. β-Arrestin-2 recruitment was measured at 37° C. in presence of 5 μM Coelenterazine H, 5 min after agonist addition.

human MOPr [2] = target: T1, human MOPr; assay: cell-based; type: cell-based; set-up: expressed in transfected cells; HEK293-Glo20F cells (cAMP); conditions: for EC50: Table 3B, read-out: MOPr (cAMP) EC50; for Emax: read-out: MOPr (cAMP) Emax; for MOPr-induced G protein activation: in words
Description: Stimulation by endogenous RF-amide peptides or test compounds for [^35S]-GTPγS binding to membranes from CHO cells expressing human NPFF1R or NPFF2R, were examined as reported. 1.6. Glo-Sensor cAMP Assay cAMP accumulation assay was essentially done as described with the following modifications: HEK293 cells stably expressing cAMP Glosensor-20F were used, with or without additional stable expression of each individual opioid receptor or NPFF1R. The cAMP responses were measured in presence of D-luciferin (1 mM).

[3] = Table 3B, — = non-detectable recruitment, read-out: MOPr (β-arrestin-2) EC50
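For MOPr (cAMP) Emax in this document: Emax relative to DAMGO as 100%.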

Compound	IC50 (NPFF2R) [nM]	IC50 (human NPFF1R) [nM]	EC50 (human MOPr [1]; [3]) [nM]	Emax (human MOPr [1]) [%]	EC50 (human MOPr [2]) [nM]	Emax (human MOPr [2]) [%]	β-arrestin-2 recruitment (human MOPr [1])	MOPr-induced G protein activation (human MOPr [2])	EC50 (human MOPr [1]) [nM]
Cc1cc(O)cc(C)c1C[C@H](N)C(=O)N[C@H](CCCNC(=N)N)C(=O)N[C@@H](Cc1ccccc1)C(=O)N(C)CCC(=O)N[C@@H](CCCN1CCC(Cc2ccccc2)CC1)C(=O)N[C@@H](Cc1ccccc1)C(N)=O [DP0013, H-Dmt-D-Arg-Phe-N(Me)-β-Ala-Bpa-Phe-NH2] (H-[Dmt][dR]F[NMeβAla][Nva(5-(4-Bn-piperidin-1-yl))]F-NH2)	~40	< 40	20.5	101	0.53 ± 0.004	115 ± 4			
Cc1cc(O)cc(C)c1C[C@H](N)C(=O)N[C@H](CCCNC(=N)N)C(=O)N[C@H]1Cc2ccccc2CN(CCC(=O)N[C@@H](CCCN2CCC(Cc3ccccc3)CC2)C(=O)N[C@@H](Cc2ccc(O)cc2)C(N)=O)C1=O [DP0004, H-Dmt-D-Arg-Aba-β-Ala-Bpa-Tyr-NH2] (H-[Dmt][dR][X1][Nva(5-(4-Bn-piperidin-1-yl))]Y-NH2)	< 50	50 to 500	126	64	4.2 ± 0.7	88 ± 4			
Cc1cc(O)cc(C)c1C[C@H](N)C(=O)N[C@H](CCCNC(=N)N)C(=O)N[C@H]1Cc2ccccc2CN(CCC(=O)N[C@@H](CCCN2CCC(Cc3ccccc3)CC2)C(=O)N[C@@H](Cc2c[nH]c3ccccc23)C(N)=O)C1=O [DP0005, H-Dmt-D-Arg-Aba-β-Ala-Bpa-Trp-NH2] (H-[Dmt][dR][X1][Nva(5-(4-Bn-piperidin-1-yl))]W-NH2)	< 50	~50	98	42	7.9 ± 0.5	81 ± 0.6			
Cc1cc(O)cc(C)c1C[C@H](N)C(=O)N[C@H](CCCNC(=N)N)C(=O)N[C@@H](Cc1ccccc1)C(=O)NCCC(=O)N[C@@H](CCCN1CCC(Cc2ccccc2)CC1)C(=O)N[C@@H](Cc1ccccc1)C(N)=O [DP0019, H-Dmt-D-Arg-Phe-β-Ala-Bpa-Phe-NH2] (HELM PEPTIDE1{[Cc1cc(O)cc(C)c1C[C@H](N)C(=O)[*:2]].[dR].F.[bAla].[O=C([C@H](CCCN1CCC(Cc2ccccc2)CC1)N[*:1])[*:2]].F.[am]}$$$$V2.0)	40 to 400	40 to 400	162	53	4 ± 0.4	101 ± 1			
Cc1cc(O)cc(C)c1C[C@H](N)C(=O)N[C@H](CCCNC(=N)N)C(=O)N[C@H]1Cc2c(ccc3ccccc23)CN(CC(=O)N[C@@H](CCCN2CCC(Cc3ccccc3)CC2)C(=O)N[C@@H](Cc2ccccc2)C(N)=O)C1=O [DP0012, H-Dmt-D-Arg-1AnaGly-Bpa-Phe-NH2]	< 40	< 40	650	22	15.1 ± 0.4	90 ± 2			
Cc1cc(O)cc(C)c1C[C@H](N)C(=O)N[C@H](CCCNC(=N)N)C(=O)N[C@H]1Cc2c(ccc3ccccc23)CN(CC(=O)N[C@@H](CCCN2CCC(Cc3ccccc3)CC2)C(=O)N[C@H](C(N)=O)C(C)C)C1=O [DP0021, H-Dmt-D-Arg-1AnaGly-Bpa-Val-NH2]	< 40	40 to 400	109 ± 57	22	2.8 ± 0.4	102 ± 3			
Cc1cc(O)cc(C)c1C[C@H](N)C(=O)N[C@H](CCCNC(=N)N)C(=O)N[C@H]1Cc2ccccc2CN(CCCC(=O)N[C@@H](CCCN2CCC(Cc3ccccc3)CC2)C(=O)N[C@@H](Cc2ccccc2)C(N)=O)C1=O [DP0018, H-Dmt-D-Arg-AbaGABA-Bpa-Phe-NH2] (H-[Dmt][dR][X5][Nva(5-(4-Bn-piperidin-1-yl))]F-NH2)	< 40	40 to 400	95.8	31	5.5	108			
Cc1cc(O)cc(C)c1C[C@H](N)C(=O)N1CCC[C@@H]1C(=O)N[C@H]1Cc2ccccc2CN(CCC(=O)N[C@@H](CCCN2CCC(Cc3ccccc3)CC2)C(=O)N[C@@H](Cc2ccccc2)C(N)=O)C1=O [DP0008, H-Dmt-D-Pro-Aba-β-Ala-Bpa-Phe-NH2] (H-[Dmt][dP][X1][Nva(5-(4-Bn-piperidin-1-yl))]F-NH2)					10.6 ± 1.3	53 ± 0.7	non-detectable	significant	
Cc1cc(O)cc(C)c1C[C@H](N)C(=O)N[C@H](CCCNC(=N)N)C(=O)N[C@@H](Cc1ccccc1)C(=O)N(C)CC(=O)N[C@@H](CCCN1CCC(Cc2ccccc2)CC1)C(=O)N[C@H](C(N)=O)C(C)C [DP0025, H-Dmt-D-Arg-Phe-N(Me)Gly-Bpa-Val-NH2] (HELM PEPTIDE1{[Cc1cc(O)cc(C)c1C[C@H](N)C(=O)[*:2]].[dR].F.[Sar].[O=C([C@H](CCCN1CCC(Cc2ccccc2)CC1)N[*:1])[*:2]].V.[am]}$$$$V2.0)			~50	~114	7.1	110			
Cc1cc(O)cc(C)c1C[C@H](N)C(=O)N(C)[C@H](C)C(=O)N[C@H]1Cc2c(ccc3ccccc23)CN(CC(=O)N[C@@H](CCCN2CCC(Cc3ccccc3)CC2)C(=O)N[C@@H](Cc2ccccc2)C(N)=O)C1=O [DP0014, H-Dmt-N(Me)-D-Ala-1AnaGly-Bpa-Phe-NH2]	~40	< 40			5.3	76	non-detectable	significant	
Cc1cc(O)cc(C)c1C[C@H](N)C(=O)N[C@H](CCCCNC(=O)c1cccnc1)C(=O)N[C@H]1Cc2ccccc2CN(CCC(=O)N[C@@H](CCCN2CCC(Cc3ccccc3)CC2)C(=O)N[C@@H](Cc2ccccc2)C(N)=O)C1=O [DP0034, H-Dmt-D-Lys(Nic)-Aba-β-Ala-Bpa-Phe-NH2] (H-[Dmt][dK](Nicotinoyl)[X1][Nva(5-(4-Bn-piperidin-1-yl))]F-NH2)				~18	3.9	92			5 to 50
Cc1cc(O)cc(C)c1C[C@H](N)C(=O)N[C@H](CCCNC(=N)N)C(=O)N[C@@H](Cc1ccccc1)C(=O)N(C)[C@H](C)C(=O)N[C@@H](CCCN1CCC(Cc2ccccc2)CC1)C(=O)N[C@@H](Cc1ccccc1)C(N)=O [DP0030, H-Dmt-D-Arg-Phe-N(Me)-D-Ala-Bpa-Phe-NH2] (H-[Dmt][dR]F[dNMeA][Nva(5-(4-Bn-piperidin-1-yl))]F-NH2)			~150	~85	27.7	111			
Cc1cc(O)cc(C)c1C[C@H](N)C(=O)N[C@H](CCCNC(=N)N)C(=O)N[C@H]1Cc2ccccc2CN(CCCC(=O)N[C@@H](CCCN2CCC(Cc3ccccc3)CC2)C(=O)N[C@H](C(N)=O)C(C)C)C1=O [DP0020, H-Dmt-D-Arg-AbaGABA-Bpa-Val-NH2] (H-[Dmt][dR][X5][Nva(5-(4-Bn-piperidin-1-yl))]V-NH2)	40 to 400	40 to 400	149	53	6.3	101			
Cc1cc(O)cc(C)c1C[C@H](N)C(=O)N[C@H](CCCNC(=N)N)C(=O)N[C@H]1Cc2ccccc2CN(CCCC(=O)N[C@@H](CCCN2CCC(Cc3ccccc3)CC2)C(=O)N[C@@H](Cc2c[nH]c3ccccc23)C(N)=O)C1=O [DP0022, H-Dmt-D-Arg-AbaGABA-Bpa-Trp-NH2] (H-[Dmt][dR][X5][Nva(5-(4-Bn-piperidin-1-yl))]W-NH2)	< 40	~40	617 ± 205	30 ± 0.7	5	90			
Cc1cc(O)cc(C)c1C[C@H](N)C(=O)N[C@H](CCCCN)C(=O)N[C@H]1Cc2ccccc2CN(CCC(=O)N[C@@H](CCCN2CCC(Cc3ccccc3)CC2)C(=O)N[C@@H](Cc2ccccc2)C(N)=O)C1=O [DP0029, H-Dmt-D-Lys-Aba-β-Ala-Bpa-Phe-NH2] (H-[Dmt][dK][X1][Nva(5-(4-Bn-piperidin-1-yl))]F-NH2)					25.7	72	non-detectable	significant	
